Consider four compounds from US20060003016A1, “Therapeutic method for endolymphatic hydrops associated diseases” (priority 2004, published 2006).

Each structure is given as a SMILES string. Where a name gives a salt, the structure may show the parent alone. Some results are limits rather than exact numbers.

The test system of test [1] is patients with Meniere's disease and endolymphatic hydrops associated diseases. Nature of the test: Clinical course of vertigo, aural fullness, tinnitus and hearing in clinical cases. It counts as in vivo, patient. The text has this:
Therapeutic method of our invention is always performed after general examinations and standard laboratory examinations, such as blood pressure, plasma electrolytes, and urine osmolality. After consideration of body weight, age, sex, and life style, we directed the patients to take adequate water (see below) every day in combination with short-term application with isosorbite®. During the initial stage of the water intake method, recommended volume of water intake for adult male, weighing 60 kg, is calculated as 1.8-2.1 l per day according to the following formula (F 1). […] They seem to be nervous and live under the very strong psychological pressure.
The present invention is explained in detail by mentioning clinical cases.

Test [2] has as its system guinea pig. The settings on record: after administration of AVP; cited from earlier work.
The test system of test [3] is rats. The settings on record: arginine-vasopressin induced rats; cited from earlier work.
[4] abbreviates: case 3, isosorbide 63 g t.d.s. and difenidol hydrochloride 75 mg t.d.s. together for 6 days, July 28, 2000.
Where [5] appears, read: case 3, isosorbide 63 g t.d.s. and difenidol hydrochloride 75 mg t.d.s. together for 14 days, March 2000.

For the compound `OC(CCCN1CCCCC1)(c1ccccc1)c1ccccc1` [difenidol hydrochloride, reference compound], the left hearing result is given as “improved to normal range” in test [1] (setting [4]) and “improved” in test [1] (setting [5]).
As to `O[C@@H]1CO[C@H]2[C@@H]1OC[C@@H]2O` [isosorbide, reference compound], the “time until rotatory vertigo was improved” value in test [1] (case 1, attack of Jan. 24, 2003, isosorbide 63 g t.d.s. with water intake 2 lit./day continued) is not above 3 h. The right ear hearing result in test [1] (case 1, isosorbide 63 g t.d.s. for one week, reexamination Dec. 6, 2002) is “improved to the normal level”. Further, the values for the left hearing result in test [1] (setting [4]) and in test [1] (setting [5]) were “improved to normal range” and “improved”, respectively. Also, in test [1] (case 4, isosorbide 63 g t.d.s. orally for 2 weeks), the right hearing result is on record as “no improvement”.
For the compound `CCCCC[C@H](O)/C=C/[C@H]1[C@H](O)CC(=O)[C@@H]1CCCCCCC(=O)O` [PGE1, reference compound], the “low frequency sensorineural hearing loss of the left ear” value in test [1] (case 5, steroid, VB12 and vasodilator (prostaglandin:PGE1) together) is recorded as “no improvement”.
On to `NC(=O)CC[C@@H]1NC(=O)[C@H](Cc2ccccc2)NC(=O)[C@H](Cc2ccc(O)cc2)NC(=O)[C@@H](N)CSSC[C@@H](C(=O)N2CCC[C@H]2C(=O)N[C@@H](CCCN=C(N)N)C(=O)NCC(N)=O)NC(=O)[C@H](CC(N)=O)NC1=O` [AVP, arginine vasopressin], for which the endolymphatic hydrops entry in test [2] is reported as “endolymphatic hydrops was produced”. Moreover, in test [3], the “ABR (auditory brainstem evoked response) threshold” value was “increase in ABR (auditory brainstem evoked response) threshold”.
